Results on two molecules are retold here after patent US20010049117A1, “ANALOGS OF UDP-MURNAC PEPTIDES, ASSAYS, KITS AND RELATED METHODS OF THEIR USE” (priority 1998, published 2001).

This test concerns MraY/MurG enzymes. Kind of test: Lipid II formation assay (coupled MraY/MurG GlcNAc transferase assay, streptavidin capture). In kind it is biochemical, E. coli. The protocol:
Bacterial membranes are used as a source of enzymes in the coupled MraY/MurG assay for the formation of Lipid II. Wild-type E. coli and MurG over-expressing constructs have been utilized as the membrane donors. Bacteria are grown in Brain Heart Infusion media supplemented with Casamino Acids (BHI/CAA) at 37° C. with aeration, to log phase (OD600=0.7) and centrifuged at 7000×g. Pellets are washed once with 50× the wet pellet weight of 5 mM Tris-HCl (pH 8.0). Pellets are resuspended at a concentration of 2 gms wet pellet/35 mls 5 mM Tris for French Press disruption. Cells are pressure treated at 20,000 psi for 1 minute in a prechilled pressure cell. The membranes generated are collected by ultracentrifugation at 200,000×g for 1 hour at 4° C. Membrane pellets are resuspended in approximately the same volume as the wet pellet weight. This generally yields a membrane concentration of roughly 5 mg/ml. Aliquots are made, and membranes frozen at −80° C. until analysis.
Reactions for the formation of Lipid II have been optimized in 1.5 ml Eppendorf tubes. […]
To the Eppendorf tubes containing the reaction mixtures, 500 ul of binding buffer (10 mM Tris-HCl (PH 8.0), 150 mM NaCl, 0.2% Triton X-100) is added. […] The resulting beads are resuspended in buffer, mixed with scintillation cocktail, and counted in a scintillation counter to determine the amount of radioactivity associated with the capture event. […]

Regarding moenomycin, the “effect on formation of streptavidin-capturable radiolabeled Lipid II” value (100 ug/ml) is given as “did not affect”.
With `CC1(C)S[C@@H]2[C@H](NC(=O)[C@H](N)c3ccccc3)C(=O)N2[C@H]1C(=O)O` [ampicillin], the “effect on the coupled GlcNAc transferase assay (formation of Lipid II)” value (FIG. 4) is “no effect”.
